Source: ChEMBL document CHEMBL1150251, “SAR and QSAR study on 2-aminothiazole derivatives, modulators of transcriptional repression in Huntington's disease” (Bioorg Med Chem, 2008)

system: ST14A; test: Modulation of RE1/NRSE expressed in ST14A cells assessed as increase in luciferase reporter activity at 50 nM after 72 hrs relative to control; format: cell-based

Row | Structure (SMILES) | Activity
1 | Cc1nc2ccccn2c1-c1csc(Nc2ccc(N)cc2)n1 | 1.28
2 | Cc1nc2ccccn2c1-c1csc(Nc2ccc(O)cc2)n1 | 1.02
3 | Cc1nc2ccccn2c1-c1csc(Nc2ccc(Br)cc2)n1 | 1.9
4 | Cc1nc2ccccn2c1-c1csc(NC(=O)c2ccco2)n1 | 0.94
5 | C=CCNc1nc(-c2c(C)nc3ccccn23)cs1 | 0.91
6 | CN(C)c1ccc(Nc2nc(-c3ccccc3)cs2)cc1 | 1.3
7 | COc1cc(Br)c(Nc2nc(-c3c(C)nc4cc(C)ccn34)cs2)c(Br)c1 | 1.07
8 | Cc1nc(N)sc1-c1csc(Nc2ccc(N(C)C)cc2)n1 | 1.23
9 | COc1cc(Br)c(Nc2nc(-c3c(C)nc4ncccn34)cs2)c(Br)c1 | 1.03
10 | Cc1ccn2c(-c3csc(Nc4ccc(C(=O)O)cc4)n3)c(C)nc2c1 | 1.12
11 | Cc1nc2ccccn2c1-c1csc(NC(=O)c2ccccc2)n1 | 1.09
12 | CCN(CC)c1ccc(Nc2nc(-c3c(C)nc4cc(C)ccn34)cs2)cc1 | 1.06
13 | COc1ccc(Cl)c(Nc2nc(-c3c(C)nc4ncccn34)cs2)c1 | 0.74
14 | COc1ccccc1Nc1nc(-c2c(C)nc3ncccn23)cs1 | 0.97
15 | Cc1ccn2c(-c3csc(NCc4ccco4)n3)c(C)nc2c1 | 0.99
16 | Cc1nc2sccn2c1-c1csc(Nc2ccc(N(C)C)cc2)n1 | 1.8
17 | Cc1nc2ccccn2c1-c1csc(NC(=O)c2ccncc2)n1 | 1
18 | Cc1ccnc(Nc2nc(-c3c(C)nc4ccccn34)cs2)c1 | 0.98
19 | Cc1nc2ccccn2c1-c1csc(NC(=O)c2ccc(Br)cc2)n1 | 0.94
20 | Cc1ccn2c(-c3csc(Nc4ccc(N)cc4)n3)c(C)nc2c1 | 1.14
21 | Cc1nc2ncccn2c1-c1csc(Nc2ccc(N(C)C)cc2)n1 | 3.34
22 | Cc1nc2sccn2c1-c1csc(Nc2ccc(O)cc2)n1 | 0.95
23 | Cc1ccn2c(-c3csc(Nc4cccc(C(=O)O)c4)n3)c(C)nc2c1 | 1.14

Row | Structure (SMILES) | Activity
24 | Cc1nc2ccccn2c1-c1csc(N)n1 | 0.87
25 | Cc1nc2sccn2c1-c1csc(Nc2ccc(N)cc2)n1 | 1.14
26 | COc1ccc(Cl)c(Nc2nc(-c3c(C)nc4sccn34)cs2)c1 | 0.91
27 | Cc1nc2ccccn2c1-c1csc(Nc2cccc(O)c2)n1 | 1.04
28 | Cc1nc2ncccn2c1-c1csc(Nc2ccc(O)cc2)n1 | 0.89
29 | CCOc1ccccc1Nc1nc(-c2c(C)nc3cc(C)ccn23)cs1 | 0.94
30 | Cc1nc2ccccn2c1-c1csc(NC(=O)c2cccnc2)n1 | 0.98
31 | Cc1ccn2c(-c3csc(NCc4ccccc4)n3)c(C)nc2c1 | 1.3
32 | CCN(CC)c1ccc(Nc2nc(-c3c(C)nc4sccn34)cs2)cc1 | 1.04
33 | COc1ccc(Nc2nc(-c3c(C)nc4ncccn34)cs2)cc1 | 2.29
34 | COc1ccc(Cl)c(Nc2nc(-c3c(C)nc4ccccn34)cs2)c1 | 1.09
35 | CCN(CC)c1ccc(Nc2nc(-c3c(C)nc4ccccn34)cs2)cc1 | 1.09
36 | Cc1nc2ccccn2c1-c1csc(Nc2ccccc2)n1 | 1.01
37 | COc1ccc(Nc2nc(-c3c(C)nc4ccccn34)cs2)cc1 | 2
38 | CCN(CC)c1ccc(Nc2nc(-c3c(C)nc4ncccn34)cs2)cc1 | 1.16
39 | CCOc1ccc(Nc2nc(-c3c(C)nc4cc(C)ccn34)cs2)cc1 | 1.88
40 | CN(C)c1ccc(Nc2nc(-c3ccncc3)cs2)cc1 | 1.13
41 | Cc1ccn2c(-c3csc(Nc4ccc(N(C)C)cc4)n3)c(C)nc2c1 | 2.55
42 | Cc1nc2ccccn2c1-c1csc(NCc2ccco2)n1 | 1.01
43 | COc1ccc(Nc2nc(-c3c(C)nc4cc(C)ccn34)cs2)cc1 | 2.19
44 | Cc1ccn2c(-c3csc(Nc4ccc(O)cc4)n3)c(C)nc2c1 | 1.08
45 | Cc1nc2ccccn2c1-c1csc(NCc2ccccc2)n1 | 0.97
